Test results as given in patent US20250032524A1, “BROAD SPECTRUM AMINOGLYCOSIDES AND USES THEREOF” (REVAGENIX, INC., priority 2022, published 2025).
Like-named read-outs stand apart in the source and are kept apart here.

Tests used:
Format in all cases: cell-based
A. baumannii = experiment: MIC broth microdilution (CLSI); conditions: Acinetobacter baumannii
Outline: (§1)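 MIC read as the lowest compound concentration giving no visible growth, defined as OD 600 nm<0.05, after 18-24 hours at 35° C. in ambient air. Wells held 2-fold dilutions in cation-adjusted Mueller-Hinton broth inoculated to 5×10^5 CFU/mL.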

C. freundii = experiment: MIC broth microdilution (CLSI); conditions: Citrobacter freundii, read-out: Activity (MIC)
Outline: as §1

E. cloacae = experiment: MIC broth microdilution (CLSI); conditions: Enterobacter cloacae; strain AECL1089, MDR Clinical isolate (CDC CRE panel), CDC AR Bank 0154
Outline: as §1

E. coli = experiment: MIC broth microdilution (CLSI); conditions: Escherichia coli
Outline: as §1

K. aerogenes = experiment: MIC broth microdilution (CLSI); conditions: Klebsiella aerogenes; strain AEAE1042, MDR Clinical isolate (CDC CRE panel), CDC AR Bank 0161
Outline: as §1

K. pneumoniae = experiment: MIC broth microdilution (CLSI)
Outline: as §1

P. aeruginosa [1] = experiment: MIC broth microdilution (CLSI); conditions: Pseudomonas aeruginosa
Outline: as §1

P. mirabilis = experiment: MIC broth microdilution (CLSI); conditions: Proteus mirabilis; strain APMI1048, MDR Clinical isolate (CDC CRE panel), CDC AR Bank 0159
Outline: as §1

S. aureus = experiment: MIC broth microdilution (CLSI); conditions: for MIC: Staphylococcus aureus
Outline: as §1

S. enterica = experiment: MIC broth microdilution (CLSI); conditions: Salmonella enterica, read-out: Activity (MIC)
Outline: as §1

[2] = test system: A. baumannii-calcoaceticus; experiment: Antibacterial surveillance of clinical isolates (MIC50/90); conditions: 100 isolates
Description: (§2) Minimum inhibitory concentrations for representative example compounds herein were determined by a broth microdilution method in accordance with the Clinical and Laboratory Standards Institute (CLSI) guidelines. In brief, organism suspensions were adjusted to a 0.5 McFarland standard to yield a final inoculum between 3×10^5 and 7×10^5 colony-forming units (CFU)/mL. The inoculum was prepared by suspension of a colony from an agar plate that was prepared the previous day. Compound dilutions and inoculum were prepared in sterile, cation adjusted Mueller-Hinton Broth (Beckton Dickinson).
(§3) Bacteria were suspended in sterile saline and added to each assay plate to obtain a final concentration of 5×10^5 CFU/mL. An inoculum volume of 100 μL was added to wells containing 100 μL of broth with 2-fold serial dilutions of the test compound. All inoculated microdilution trays were incubated in ambient air at 35° C. for 18-24 hours. Following incubation, the lowest concentration of the compound that prevented visible growth (OD 600 nm<0.05) is recorded was the MIC. […] Performance of the assay was monitored by the use of laboratory quality-control strains and a standard compound with a defined MIC spectrum (neomycin), in accordance with CLSI guidelines.
(§4) Several compounds of the disclosure (Compound 1, 2, and 3) were further evaluated against several hundred bacterial isolates (isolated in the United States and Europe, 1:1) selected from the SENTRY Antimicrobial Surveillance Program (JMI Laboratories, North Liberty, Iowa). The set of clinical isolates included 300 randomly selected Enterobacterales, 103 randomly selected P. aeruginosa, 100 randomly selected A. baumannii-calcoaceticus, 20 randomly selected Methicillin-sensitive S. aureus (MSSA), and 30 randomly selected Methicillin-resistant S. aureus (MRSA). In addition, 101 Enterobacterales and 50 P. aeruginosa isolates with genetically defined mechanisms of aminoglycoside resistance were included. The MIC values at which ≥50% (MIC50) and ≥90% (MIC90) of isolates within a given set are inhibited were determined for each compound against each set of organisms.

[3] = test system: AG-resistant Enterobacterales; experiment: as above
Description: as §2, §3, §4

[4] = test system: AG-resistant P. aeruginosa; experiment: as above; conditions: Pseudomonas aeruginosa, 50 isolates with defined aminoglycoside resistance
Description: as §2, §3, §4

[5] = test system: Methicillin-resistant S. aureus (MRSA); experiment: as above; conditions: Staphylococcus aureus, MRSA, 30 isolates
Description: as §2, §3, §4

[6] = test system: Methicillin-sensitive S. aureus (MSSA); experiment: as above; conditions: Staphylococcus aureus, MSSA, 20 isolates
Description: as §2, §3, §4

P. aeruginosa [7] = experiment: as above; conditions: Pseudomonas aeruginosa, 103 isolates
Description: as §2, §3, §4

NC[C@@H]1CC[C@@H](N)[C@@H](O[C@@H]2[C@@H](N)[C@H](O)[C@@H](NC(=O)[C@@H](O)[C@H](F)CN)[C@H](O)[C@H]2O[C@@H]2O[C@H](CO)[C@@H](O[C@H]3O[C@@H](CN)[C@@H](O)[C@H](O)[C@H]3N)[C@H]2O)O1 [Compound 1, (2R,3R)-4-amino-N-((1R,2S,3S,4R,5R,6S)-3-amino-5-(((2S,3R,4S,5R)-4-(((2R,3R,4R,5S,6S)-3-amino-6-(aminomethyl)-4,5-dihydroxytetrahydro-2H-pyran-2-yl)oxy)-3-hydroxy-5-(hydroxymethyl)tetrahydrofuran-2-yl)oxy)-4-(((2R,3R,6S)-3-amino-6-(aminomethyl)tetrahydro-2H-pyran-2-yl)oxy)-2,6-dihydroxycyclohexyl)-3-fluoro-2-hydroxybutanamide]
MIC (A. baumannii; read-out: Activity (MIC), strain NABA0007, ΔadeJK efflux): < 16 µg/mL | MIC (A. baumannii; read-out: Activity (MIC), strain NABA1427, MDR Clinical isolate): < 16 µg/mL | MIC (A. baumannii; read-out: Activity (MIC), strain NABA1433, MDR Clinical isolate): < 16 µg/mL | MIC (A. baumannii; read-out: Activity (MIC), strain NABA1434, MDR Clinical isolate): < 16 µg/mL | MIC (A. baumannii; read-out: Activity (MIC), strain NABA1436, MDR Clinical isolate): < 16 µg/mL | MIC (A. baumannii; read-out: Activity (MIC), strain NABA1437, MDR Clinical isolate): < 16 µg/mL | MIC (A. baumannii; read-out: Activity (MIC), strain NABA1438, MDR Clinical isolate): < 16 µg/mL | MIC (A. baumannii; read-out: Activity (MIC), strain NABA1439, MDR Clinical isolate): < 16 µg/mL | MIC (A. baumannii; read-out: Activity (MIC), strain NABA1448, MDR Clinical isolate): < 16 µg/mL | MIC (A. baumannii; read-out: Activity (MIC), strain NABA1449, MDR Clinical isolate): < 16 µg/mL | MIC (A. baumannii; read-out: Activity (MIC), strain NABA1450, MDR Clinical isolate): < 16 µg/mL | MIC (A. baumannii; strain NABA0006, WT parent, read-out: Activity (MIC)): < 16 µg/mL | MIC (A. baumannii; strain NABA0020, AME negative strain, read-out: Activity (MIC)): < 16 µg/mL | MIC (C. freundii): < 16 µg/mL | MIC (E. cloacae): < 16 µg/mL | MIC (E. coli; read-out: Activity (MIC), strain AECO1225, MDR Clinical isolate (CDC CRE panel), CDC AR Bank 0118): < 16 µg/mL | MIC (E. coli; read-out: Activity (MIC), strain AECO1226, MDR Clinical isolate (CDC CRE panel), CDC AR Bank 0119): < 16 µg/mL | MIC (E. coli; read-out: Activity (MIC), strain AECO1227, MDR Clinical isolate (CDC CRE panel), CDC AR Bank 0128): < 16 µg/mL | MIC (E. coli; read-out: Activity (MIC), strain NECO0003, ΔtolC): < 16 µg/mL | MIC (E. coli; read-out: Activity (MIC), strain NECO0245, ArmA): < 16 µg/mL | MIC (E. coli; strain NECO0001, WT QC, read-out: Activity (MIC)): < 16 µg/mL | MIC (E. coli; strain NECO0002, WT, read-out: Activity (MIC)): < 16 µg/mL | MIC (E. coli; strain NECO0243, empty vector, read-out: Activity (MIC)): < 16 µg/mL | MIC (E. coli; strain NECO0244, AAC(6')-Ib, read-out: Activity (MIC)): < 16 µg/mL | MIC (E. coli; strain NECO0289, APH(3')-Ia, read-out: Activity (MIC)): < 16 µg/mL | MIC (E. coli; strain NECO0302, AAC(3)-IIa, read-out: Activity (MIC)): < 16 µg/mL | MIC (E. coli; strain NECO0350, AAC(2')-I, read-out: Activity (MIC)): < 16 µg/mL | MIC (E. coli; strain NECO0359, ANT(4')-Ia, read-out: Activity (MIC)): < 16 µg/mL | MIC (K. aerogenes): < 16 µg/mL | MIC (K. pneumoniae; Klebsiella pneumoniae, strain AKPN1246, MDR Clinical isolate (CDC CRE panel), CDC AR Bank 0139): < 16 µg/mL | Activity (MIC) (K. pneumoniae; strain AKPN1250, MDR Clinical isolate (CDC CRE panel), CDC AR Bank 0143): + (MIC threshold for positive activity (+) is ≤16 μg/mL) | Activity (MIC) (K. pneumoniae; strain AKPN1253, MDR Clinical isolate (CDC CRE panel), CDC AR Bank 0148): + (MIC threshold for positive activity (+) is ≤16 μg/mL) | Activity (MIC) (K. pneumoniae; strain AKPN1255, MDR Clinical isolate (CDC CRE panel), CDC AR Bank 0153): + (MIC threshold for positive activity (+) is ≤16 μg/mL) | MIC (P. aeruginosa [1]; read-out: Activity (MIC), strain NPAE0006, Efflux KO, Aph(3')-IIb): < 16 µg/mL | MIC (P. aeruginosa [1]; read-out: Activity (MIC), strain NPAE0010, MexXY over-expressed, Aph(3')-IIb): < 16 µg/mL | MIC (P. aeruginosa [1]; read-out: Activity (MIC), strain NPAE1288, MDR Clinical isolate): < 16 µg/mL | MIC (P. aeruginosa [1]; read-out: Activity (MIC), strain NPAE1293, MDR Clinical isolate): < 16 µg/mL | MIC (P. aeruginosa [1]; read-out: Activity (MIC), strain NPAE1299, MDR Clinical isolate): < 16 µg/mL | MIC (P. aeruginosa [1]; read-out: Activity (MIC), strain NPAE1302, MDR Clinical isolate): < 16 µg/mL | MIC (P. aeruginosa [1]; read-out: Activity (MIC), strain NPAE1303, MDR Clinical isolate): < 16 µg/mL | MIC (P. aeruginosa [1]; read-out: Activity (MIC), strain NPAE1308, MDR Clinical isolate): < 16 µg/mL | MIC (P. aeruginosa [1]; read-out: Activity (MIC), strain NPAE1310, MDR Clinical isolate): < 16 µg/mL | MIC (P. aeruginosa [1]; read-out: Activity (MIC), strain NPAE1313, MDR Clinical isolate): > 16 µg/mL | MIC (P. aeruginosa [1]; read-out: Activity (MIC), strain NPAE1316, MDR Clinical isolate): < 16 µg/mL | MIC (P. aeruginosa [1]; read-out: Activity (MIC), strain NPAE1323, MDR Clinical isolate): < 16 µg/mL | MIC (P. aeruginosa [1]; strain NPAE0001, WT Aph(3')-IIb, QC, read-out: Activity (MIC)): < 16 µg/mL | MIC (P. aeruginosa [1]; strain NPAE0002, WT Aph(3')-IIb, read-out: Activity (MIC)): < 16 µg/mL | MIC (P. aeruginosa [1]; strain NPAE0359, aph(3')-IIb KO (tetR), read-out: Activity (MIC)): < 16 µg/mL | MIC (P. mirabilis): < 16 µg/mL | MIC (S. aureus; ATCC29213, strain NSAU001, wild-type, QC, ATCC 29213): < 16 µg/mL | MIC (S. aureus; strain NSAU1004, MDR Clinical isolate): < 16 µg/mL | Activity (MIC) (S. aureus; strain NSAU1015, MDR Clinical isolate): + (MIC threshold for positive activity (+) is ≤16 μg/mL) | Activity (MIC) (S. aureus; strain NSAU1023, MDR Clinical isolate): + (MIC threshold for positive activity (+) is ≤16 μg/mL) | Activity (MIC) (S. aureus; strain NSAU1063, MDR Clinical isolate): + (MIC threshold for positive activity (+) is ≤16 μg/mL) | MIC (S. enterica): < 16 µg/mL | MIC50 ([2]; read-out: MIC50): < 16 µg/mL | MIC90 ([2]; read-out: MIC90): < 16 µg/mL | MIC50 [3]: < 16 µg/mL | MIC90 [3]: < 16 µg/mL | MIC50 ([4]; read-out: MIC50): < 16 µg/mL | MIC90 ([4]; read-out: MIC90): < 16 µg/mL | MIC50 ([5]; read-out: MIC50): < 16 µg/mL | MIC90 ([5]; read-out: MIC90): < 16 µg/mL | MIC50 ([6]; read-out: MIC50): < 16 µg/mL | MIC90 ([6]; read-out: MIC90): < 16 µg/mL | MIC50 (P. aeruginosa [7]; read-out: MIC50): < 16 µg/mL | MIC90 (P. aeruginosa [7]; read-out: MIC90): < 16 µg/mL
